The source of these data is ChEMBL document CHEMBL5291721, “A preclinical secondary pharmacology resource illuminates target-adverse drug reaction associations of marketed drugs” (Nat Commun, 2023).

Structures are written as SMILES.

In test [1] the target is Muscarinic acetylcholine receptor M3 (Homo sapiens, UniProt P20309).
Test [2] addresses Beta-1 adrenergic receptor (Homo sapiens, UniProt P08588). It is filed as functional.
Test [3] concerns the target Beta-2 adrenergic receptor (Homo sapiens, UniProt P07550).
The target in a further test is Mu-type opioid receptor (Homo sapiens, UniProt P35372). In words: biochemical. It counts as functional.
The target of another test is T1, Estrogen receptor (Homo sapiens, UniProt P03372).
T1 sequence (P03372 whole entry): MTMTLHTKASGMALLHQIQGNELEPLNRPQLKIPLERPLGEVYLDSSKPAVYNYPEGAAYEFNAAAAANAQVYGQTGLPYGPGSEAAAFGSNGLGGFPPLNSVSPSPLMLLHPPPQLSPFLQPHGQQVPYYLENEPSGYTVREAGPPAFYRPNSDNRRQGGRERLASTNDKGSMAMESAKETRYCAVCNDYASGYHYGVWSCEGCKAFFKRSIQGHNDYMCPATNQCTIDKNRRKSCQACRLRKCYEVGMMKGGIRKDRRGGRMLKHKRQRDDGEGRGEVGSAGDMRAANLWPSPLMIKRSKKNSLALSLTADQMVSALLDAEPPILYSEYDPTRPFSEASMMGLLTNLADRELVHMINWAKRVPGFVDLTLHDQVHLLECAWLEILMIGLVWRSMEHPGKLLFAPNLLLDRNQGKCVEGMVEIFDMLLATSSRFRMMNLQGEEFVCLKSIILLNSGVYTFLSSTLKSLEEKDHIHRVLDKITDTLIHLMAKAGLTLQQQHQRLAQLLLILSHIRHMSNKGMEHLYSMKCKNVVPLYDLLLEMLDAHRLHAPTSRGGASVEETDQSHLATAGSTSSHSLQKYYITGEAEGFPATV

Test [4] has as its target Kappa-type opioid receptor (Homo sapiens, UniProt P41145).
Test [5] concerns the target T2, 5-hydroxytryptamine receptor 1A (Homo sapiens, UniProt P08908).
T2 sequence (P08908 whole entry): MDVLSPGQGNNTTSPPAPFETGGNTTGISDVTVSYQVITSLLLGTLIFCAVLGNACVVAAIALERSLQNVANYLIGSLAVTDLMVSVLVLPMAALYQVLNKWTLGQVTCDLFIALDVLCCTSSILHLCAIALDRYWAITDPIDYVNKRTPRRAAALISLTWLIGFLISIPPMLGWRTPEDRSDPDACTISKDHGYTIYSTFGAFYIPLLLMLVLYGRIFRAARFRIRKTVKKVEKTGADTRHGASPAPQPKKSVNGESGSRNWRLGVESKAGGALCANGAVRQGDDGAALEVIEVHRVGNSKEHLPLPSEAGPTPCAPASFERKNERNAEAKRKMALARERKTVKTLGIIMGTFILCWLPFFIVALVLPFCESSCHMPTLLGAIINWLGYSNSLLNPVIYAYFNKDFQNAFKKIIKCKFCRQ
It counts as functional, cell-based.

The target of the next test is T3, Thromboxane A2 receptor (Homo sapiens, UniProt P21731).
T3 sequence (P21731 whole entry): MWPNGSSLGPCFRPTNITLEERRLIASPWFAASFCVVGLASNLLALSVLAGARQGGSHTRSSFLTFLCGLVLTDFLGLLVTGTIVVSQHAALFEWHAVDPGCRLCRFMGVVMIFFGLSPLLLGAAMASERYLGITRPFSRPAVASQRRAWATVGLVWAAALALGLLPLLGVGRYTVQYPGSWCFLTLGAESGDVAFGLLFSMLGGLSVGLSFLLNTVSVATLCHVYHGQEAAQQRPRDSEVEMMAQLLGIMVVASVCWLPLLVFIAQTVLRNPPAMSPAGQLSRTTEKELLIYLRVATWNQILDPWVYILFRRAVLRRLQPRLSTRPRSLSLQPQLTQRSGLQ

The target in test [6] is T4, Muscarinic acetylcholine receptor M2 (Homo sapiens, UniProt P08172).
T4 sequence (P08172 whole entry): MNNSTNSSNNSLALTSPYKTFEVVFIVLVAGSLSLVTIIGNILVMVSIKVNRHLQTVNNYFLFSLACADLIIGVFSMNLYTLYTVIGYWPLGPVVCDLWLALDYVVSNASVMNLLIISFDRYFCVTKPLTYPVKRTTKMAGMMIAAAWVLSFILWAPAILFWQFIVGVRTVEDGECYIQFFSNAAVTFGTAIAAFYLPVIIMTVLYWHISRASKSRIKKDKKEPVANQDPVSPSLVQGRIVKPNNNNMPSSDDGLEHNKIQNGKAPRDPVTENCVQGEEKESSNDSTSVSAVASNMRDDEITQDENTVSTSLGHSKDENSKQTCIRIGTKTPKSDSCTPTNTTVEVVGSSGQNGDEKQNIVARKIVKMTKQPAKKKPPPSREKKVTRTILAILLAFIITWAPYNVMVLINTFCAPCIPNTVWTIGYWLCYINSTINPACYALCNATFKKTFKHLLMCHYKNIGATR
It counts as functional, cell-based.

In test [7] the target is T5, Alpha-2B adrenergic receptor (Homo sapiens, UniProt P18089).
T5 sequence (P18089 whole entry): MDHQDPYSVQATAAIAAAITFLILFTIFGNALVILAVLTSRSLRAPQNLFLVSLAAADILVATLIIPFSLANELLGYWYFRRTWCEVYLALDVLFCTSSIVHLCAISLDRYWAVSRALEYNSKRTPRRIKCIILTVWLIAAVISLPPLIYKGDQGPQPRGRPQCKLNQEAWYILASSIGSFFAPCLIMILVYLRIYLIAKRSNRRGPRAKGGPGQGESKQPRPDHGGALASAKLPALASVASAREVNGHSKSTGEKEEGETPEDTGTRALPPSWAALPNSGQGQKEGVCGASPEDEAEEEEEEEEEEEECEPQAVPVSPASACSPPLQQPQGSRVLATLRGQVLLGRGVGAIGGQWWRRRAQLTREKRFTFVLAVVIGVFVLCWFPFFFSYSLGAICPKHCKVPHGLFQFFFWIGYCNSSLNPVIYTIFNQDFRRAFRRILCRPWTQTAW

In a further test the target is Melanocortin receptor 4 (Homo sapiens, UniProt P32245).
The target in another test is Histamine H3 receptor (Homo sapiens, UniProt Q9Y5N1).
For test [8], the target named is Prostaglandin G/H synthase 1 (Homo sapiens, UniProt P23219). It is filed as functional.
Note: assay procedure not described here.

Chain of Prostaglandin G/H synthase 1 (P23219 whole entry): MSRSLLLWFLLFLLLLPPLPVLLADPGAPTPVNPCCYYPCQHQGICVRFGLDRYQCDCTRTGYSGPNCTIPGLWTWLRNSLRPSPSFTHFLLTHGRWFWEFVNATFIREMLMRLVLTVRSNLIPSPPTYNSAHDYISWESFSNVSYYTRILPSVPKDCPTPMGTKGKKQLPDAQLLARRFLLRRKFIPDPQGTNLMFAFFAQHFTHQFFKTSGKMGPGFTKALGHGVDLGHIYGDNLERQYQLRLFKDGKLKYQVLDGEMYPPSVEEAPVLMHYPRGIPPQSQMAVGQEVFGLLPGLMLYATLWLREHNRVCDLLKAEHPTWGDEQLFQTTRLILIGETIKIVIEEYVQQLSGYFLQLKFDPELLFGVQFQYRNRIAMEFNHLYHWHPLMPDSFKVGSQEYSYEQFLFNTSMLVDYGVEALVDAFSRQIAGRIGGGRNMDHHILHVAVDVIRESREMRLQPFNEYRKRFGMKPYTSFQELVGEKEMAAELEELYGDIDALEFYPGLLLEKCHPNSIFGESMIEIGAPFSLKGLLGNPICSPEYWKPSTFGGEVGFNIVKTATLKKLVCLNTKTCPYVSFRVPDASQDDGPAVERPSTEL
Chain of Kappa-type opioid receptor (P41145 whole entry): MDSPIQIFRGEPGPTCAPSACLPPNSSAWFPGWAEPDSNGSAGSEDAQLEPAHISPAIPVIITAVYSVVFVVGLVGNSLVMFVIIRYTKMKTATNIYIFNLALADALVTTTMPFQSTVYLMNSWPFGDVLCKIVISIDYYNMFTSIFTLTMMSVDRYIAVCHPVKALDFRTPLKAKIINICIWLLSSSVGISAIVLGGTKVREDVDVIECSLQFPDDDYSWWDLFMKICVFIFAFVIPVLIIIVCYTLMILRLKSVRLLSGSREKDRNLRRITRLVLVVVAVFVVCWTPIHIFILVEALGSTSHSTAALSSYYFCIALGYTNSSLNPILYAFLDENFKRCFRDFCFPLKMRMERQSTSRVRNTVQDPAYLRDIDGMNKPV
Chain of Histamine H3 receptor (Q9Y5N1 whole entry): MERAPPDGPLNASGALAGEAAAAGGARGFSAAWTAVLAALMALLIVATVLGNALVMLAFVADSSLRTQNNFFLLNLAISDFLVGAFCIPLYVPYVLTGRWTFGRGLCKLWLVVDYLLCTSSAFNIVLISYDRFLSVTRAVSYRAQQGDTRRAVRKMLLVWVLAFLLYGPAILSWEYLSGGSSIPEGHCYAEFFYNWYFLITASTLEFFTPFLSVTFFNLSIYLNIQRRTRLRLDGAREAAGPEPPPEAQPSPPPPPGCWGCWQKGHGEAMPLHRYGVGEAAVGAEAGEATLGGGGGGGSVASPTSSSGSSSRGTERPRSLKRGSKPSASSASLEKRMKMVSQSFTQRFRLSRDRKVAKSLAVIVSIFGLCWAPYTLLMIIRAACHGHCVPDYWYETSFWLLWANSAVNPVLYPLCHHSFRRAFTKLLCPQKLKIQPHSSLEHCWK
Chain of Muscarinic acetylcholine receptor M3 (P20309 whole entry): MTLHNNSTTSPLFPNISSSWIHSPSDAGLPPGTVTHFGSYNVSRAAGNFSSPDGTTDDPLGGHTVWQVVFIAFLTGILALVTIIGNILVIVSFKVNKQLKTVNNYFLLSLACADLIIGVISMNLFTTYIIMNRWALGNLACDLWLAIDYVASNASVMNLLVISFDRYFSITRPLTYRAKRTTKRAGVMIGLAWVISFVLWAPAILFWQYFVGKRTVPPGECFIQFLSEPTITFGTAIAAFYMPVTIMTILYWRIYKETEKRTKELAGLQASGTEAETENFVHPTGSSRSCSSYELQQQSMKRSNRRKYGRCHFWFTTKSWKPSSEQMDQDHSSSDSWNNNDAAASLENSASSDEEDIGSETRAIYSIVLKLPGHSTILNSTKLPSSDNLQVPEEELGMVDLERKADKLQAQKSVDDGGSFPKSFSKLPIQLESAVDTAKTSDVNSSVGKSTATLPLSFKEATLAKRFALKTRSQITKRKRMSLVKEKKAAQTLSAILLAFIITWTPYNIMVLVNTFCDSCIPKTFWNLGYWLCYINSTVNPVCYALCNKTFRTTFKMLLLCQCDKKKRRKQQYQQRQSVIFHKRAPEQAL
Chain of Mu-type opioid receptor (P35372 whole entry): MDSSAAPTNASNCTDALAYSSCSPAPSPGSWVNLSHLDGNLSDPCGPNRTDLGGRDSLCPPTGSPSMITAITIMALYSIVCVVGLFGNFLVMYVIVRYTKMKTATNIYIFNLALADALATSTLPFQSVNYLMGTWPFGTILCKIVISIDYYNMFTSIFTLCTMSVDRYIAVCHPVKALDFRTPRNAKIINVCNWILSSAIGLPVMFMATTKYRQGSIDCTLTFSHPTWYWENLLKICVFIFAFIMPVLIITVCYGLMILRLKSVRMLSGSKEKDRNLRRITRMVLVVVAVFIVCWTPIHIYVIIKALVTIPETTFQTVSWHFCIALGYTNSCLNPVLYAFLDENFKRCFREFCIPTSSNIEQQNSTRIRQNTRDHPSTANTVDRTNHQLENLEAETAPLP
Chain of Beta-1 adrenergic receptor (P08588 whole entry): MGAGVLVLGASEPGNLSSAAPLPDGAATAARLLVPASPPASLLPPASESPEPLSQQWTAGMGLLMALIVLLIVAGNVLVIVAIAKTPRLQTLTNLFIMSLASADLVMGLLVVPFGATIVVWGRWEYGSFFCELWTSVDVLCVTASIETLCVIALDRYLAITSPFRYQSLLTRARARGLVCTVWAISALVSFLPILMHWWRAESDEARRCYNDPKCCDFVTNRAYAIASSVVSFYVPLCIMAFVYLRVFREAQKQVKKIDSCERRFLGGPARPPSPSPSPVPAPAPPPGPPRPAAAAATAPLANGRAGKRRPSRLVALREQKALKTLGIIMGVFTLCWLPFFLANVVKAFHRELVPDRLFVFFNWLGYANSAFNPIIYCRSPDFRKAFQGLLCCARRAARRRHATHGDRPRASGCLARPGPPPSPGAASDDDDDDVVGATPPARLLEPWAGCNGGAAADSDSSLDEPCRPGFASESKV
Chain of Beta-2 adrenergic receptor (P07550 whole entry): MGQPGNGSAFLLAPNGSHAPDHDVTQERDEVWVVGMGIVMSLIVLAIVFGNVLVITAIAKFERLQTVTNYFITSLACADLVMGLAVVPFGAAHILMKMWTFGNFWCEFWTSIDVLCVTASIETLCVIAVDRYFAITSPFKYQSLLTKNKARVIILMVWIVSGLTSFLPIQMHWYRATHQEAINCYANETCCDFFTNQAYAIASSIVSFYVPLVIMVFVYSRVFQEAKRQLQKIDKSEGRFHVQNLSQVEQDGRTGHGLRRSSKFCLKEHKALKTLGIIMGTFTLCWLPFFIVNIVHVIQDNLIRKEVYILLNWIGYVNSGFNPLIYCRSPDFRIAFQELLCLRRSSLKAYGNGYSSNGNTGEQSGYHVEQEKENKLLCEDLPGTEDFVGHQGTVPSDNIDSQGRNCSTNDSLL
Chain of Melanocortin receptor 4 (P32245 whole entry): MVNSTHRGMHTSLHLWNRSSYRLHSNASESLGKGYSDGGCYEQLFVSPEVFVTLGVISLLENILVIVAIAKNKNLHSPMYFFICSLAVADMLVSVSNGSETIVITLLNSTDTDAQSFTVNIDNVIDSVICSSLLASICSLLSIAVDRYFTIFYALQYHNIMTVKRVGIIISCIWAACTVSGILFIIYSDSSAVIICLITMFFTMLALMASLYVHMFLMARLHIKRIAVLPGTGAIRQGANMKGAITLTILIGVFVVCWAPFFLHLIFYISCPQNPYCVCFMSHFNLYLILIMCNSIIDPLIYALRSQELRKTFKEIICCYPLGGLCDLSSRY

With `CO/N=C(\C(=O)N[C@@H]1C(=O)N2C(C(=O)[O-])=C(C[N+]3(C)CCCC3)CS[C@H]12)c1csc(N)n1`, the AC50 is greater than 300 µM in test [1]; greater than 300 µM in [2]; greater than 30 µM in test [3]; greater than 30 µM at Mu-type opioid receptor; greater than 30 µM on Estrogen receptor; greater than 30 µM in test [4]. Besides, the AC50 in test [5] is greater than 300 µM; at Thromboxane A2 receptor, greater than 30 µM; in test [6] it was greater than 300 µM.
`COC(=O)N[C@H](C(=O)N1CCC[C@H]1c1nc(-c2ccc(-c3ccc(-c4c[nH]c([C@@H]5CCCN5C(=O)[C@@H](NC(=O)OC)C(C)C)n4)cc3)cc2)c[nH]1)C(C)C`: the AC50 (in test [1]; in test [2]; in [3]; on Mu-type opioid receptor; at Estrogen receptor; in [7]) was greater than 30 µM in each case. The AC50 in test [4] was 4.1 µM; on Thromboxane A2 receptor, greater than 30 µM; in test [6], greater than 30 µM.
Take `CCOC(=O)[C@H](CCc1ccccc1)N[C@@H](C)C(=O)N1CCC[C@H]1C(=O)O`: the AC50 in test [2] was greater than 10 µM; in test [3], greater than 10 µM; in test [4] it was greater than 10 µM; on Melanocortin receptor 4, greater than 30 µM; in test [5], greater than 10 µM; at Thromboxane A2 receptor, greater than 30 µM. Moreover, the AC50 in [6] is greater than 10 µM.
For the molecule `CC(=O)c1ccc2c(c1)N(CCCN1CCN(CCO)CC1)c1ccccc1S2` [ACETOPHENAZINE], the AC50 in test [1] was greater than 30 µM; in test [7], 0.056 µM; in test [5], 0.007 µM; in [6] it was greater than 10 µM.
Regarding `CN1CCCC(n2nc(Cc3ccc(Cl)cc3)c3ccccc3c2=O)CC1` (stereo not drawn) [AZELASTINE], the AC50 is greater than 30 µM in [1], 18 µM in [2], 3.8 µM in [7] and greater than 30 µM in [5].
Consider `N[C@@H](C(=O)N[C@@H]1C(=O)N2C(C(=O)O)=C(Cl)CS[C@H]12)c1ccccc1` [CEFACLOR ANHYDROUS], for which the AC50 (in test [1]; in [2]; on Mu-type opioid receptor; at Estrogen receptor; in test [7]; in [4]) was greater than 30 µM in each case. The molecule further yielded an AC50 in test [6] greater than 30 µM.
As for `Cc1cc(O)cc(C)c1Cl` [CHLOROXYLENOL], the AC50 (on Histamine H3 receptor; in test [8]) was greater than 30 µM throughout.
As to `CN(C)CCCN1c2ccccc2CCc2ccc(Cl)cc21` [CLOMIPRAMINE], the AC50 at Histamine H3 receptor was greater than 30 µM; in test [6], greater than 10 µM.
As for `C#C[C@]1(O)CC[C@H]2[C@@H]3CCc4cc(O)ccc4[C@H]3CC[C@@]21C` [ETHINYL ESTRADIOL], the AC50 in test [2] is greater than 10 µM; in [3] it was greater than 10 µM; on Histamine H3 receptor it was greater than 30 µM; in test [4], greater than 10 µM; at Melanocortin receptor 4 it was greater than 30 µM; at Thromboxane A2 receptor, 15 µM. For the same molecule, the AC50 in [8] was greater than 30 µM; in test [6], greater than 10 µM.
With `COc1ccc2c(c1)C(=O)N(CCc1ccc(S(=O)(=O)NC(=O)NC3CCCCC3)cc1)C(=O)C2(C)C` [GLIQUIDONE], the AC50 (in test [1]; in test [2]; in test [3]; on Mu-type opioid receptor; at Estrogen receptor; in [7]) was greater than 30 µM in each case. Besides, the AC50 is greater than 30 µM in test [4], 11 µM at Thromboxane A2 receptor and greater than 30 µM in [6].
As for `CC(C)Cc1ccc(CC(=O)O)cc1` [IBUFENAC], the AC50 in test [1], in test [2], in [7], in test [5] and in test [6] was greater than 30 µM each time.
In the case of `CC(C)NNC(=O)c1ccncc1` [IPRONIAZID], the AC50 in test [2], in test [5] and in test [6] was greater than 30 µM in each case.
With `Cc1cccc(C)c1OCC(C)N` (stereo not drawn) [MEXILETINE], the AC50 (in [2]; on Mu-type opioid receptor; on Estrogen receptor; in test [6]) was greater than 30 µM each time.
Turning to `NC(=O)c1ncn([C@@H]2O[C@H](CO)[C@@H](O)[C@H]2O)c1O` [MIZORIBINE], the AC50 (in test [1]; in [2]; at Mu-type opioid receptor; on Estrogen receptor; in test [7]; in test [4]) was greater than 30 µM throughout. The molecule also displayed an AC50 in [5] greater than 30 µM.
Regarding `O=C1CC[C@@]2(O)[C@H]3Cc4ccc(O)c5c4[C@@]2(CCN3CC2CC2)[C@H]1O5` [NALTREXONE], the AC50 (on Histamine H3 receptor; in [8]) was greater than 30 µM each time.
For `CC[C@H](C)C(=O)O[C@H]1C[C@H](O)C=C2C=C[C@H](C)[C@H](CC[C@@H](O)C[C@@H](O)CC(=O)O)[C@H]21` [PRAVASTATIN], the AC50 is greater than 30 µM in [2]; greater than 10 µM in test [3]; greater than 10 µM in test [4]; greater than 30 µM in test [5]; greater than 30 µM in [6].
On to `CNC(=O)c1cc(Oc2ccc(NC(=O)Nc3ccc(Cl)c(C(F)(F)F)c3)cc2)ccn1` [SORAFENIB], for which the AC50 in test [1] is greater than 30 µM; in test [2], 28 µM; in test [3], greater than 30 µM; at Mu-type opioid receptor, greater than 30 µM; in [7], greater than 30 µM; in test [4], 23 µM. Also, the AC50 is 16.3 µM on Thromboxane A2 receptor and greater than 30 µM in test [6].
Take `CCCS(=O)(=O)Nc1ccc(F)c(C(=O)c2c[nH]c3ncc(-c4ccc(Cl)cc4)cc23)c1F` [VEMURAFENIB]: the AC50 (in [1]; in [2]; in [3]; on Mu-type opioid receptor; at Estrogen receptor; in test [7]) was greater than 30 µM in each case. The AC50 (in test [4]; on Thromboxane A2 receptor; in test [6]) was greater than 30 µM each time.
As to `OCc1cc([C@@H](O)CNCCCCCCOCCOCc2c(Cl)cccc2Cl)ccc1O` [VILANTEROL], the AC50 in test [1], in [7], in [5] and in test [6] was greater than 30 µM each time.

By AC50 is commonly meant the concentration at which the activity in the assay is half-maximal. Read a low AC50 as activity at low concentration.
